Entries after “also recorded” stand apart in the source; their conditions may differ.

The record followed here is US9597391B2, “Cyclic-dinucleotides and its conjugates as adjuvants and their uses in pharmaceutical compositions” (HELMHOLTZ_ZENTRUM FUER INFEKTIONSFORSCHUNG GMBH, priority 2005, dated 2017).

The subject of one assay is BALB/c (H-2d) mice. Put plainly: Isotype ELISA of β-gal-specific IgG1 and IgG2a in sera of vaccinated mice. Type of assay: in vivo. The method, then:
Isotyp ELISA: 96-well Nunc-Immuno MaxiSorp assay plates (Nunc, Roskilde, Denmark) were coated with 100 μl of β-gal (Boehringer, Mannheim, Germany) at 5 μg/ml in 0.05 M carbonate buffer (pH 9,6) per well. Serial two-fold dilutions of sera or lavages in PBS with 1% BSA and 0.05% Tween 20 were added (100 μl/well), and plates incubated for 2 h at 37° C. After washing, biotin-conjugated rat anti-mouse IgG1 or IgG2a (Pharmingen, Hamburg, Germany) were added to determine IgG subclasses. Plates were incubated for an additional 1 h at 37° C. After four washes, 100 μl of peroxidase-conjugated streptavidin (Pharmingen) was added to cells and plates incubated at 37° C. for 30 min. After four washes, reactions were developed with ABTS in 0.1 M citrate-phosphate buffer (pH 4.35) containing 0.01% H2O2. To determine the concentration of IgG subclasses in serum, standard curves were obtained by coating the wells with an isotype-specific goat anti-mouse IgG, and then by incubating with purified mouse IgG1 or IgG2 antibodies (Dianova, Hamburg, Germany).
The pattern of the different subclasses of the β-gal antigen-specific IgG isotypes present in the sera of vaccinated mice is shown in FIG. 12. […] The protocol for vaccination was identical to the protocol described in Example 3. […] The data represents the average titer of a group of 5 animals.
A general note: An ELISA detects its analyte on a solid surface through an enzyme-linked reagent.

Another assay has as its system spleen cells. Put plainly: ELISPOT of cytokine producing spleen cells from vaccinated mice. In kind it is in vivo. Particulars: for expression of various cytokines: administered as an adjuvant (FIG. 10); for splenic IL-2 producing cells / splenic IL-4 producing cells: i.n. and s.c. route, restimulation with β-Gal protein; for antigen-specific IFNγ secreting cells / antigen-specific IL-2 secreting cells / antigen-specific IL-4 secreting cells: mice receiving adjuvant; for number of splenic IFNγ producing cells, parenteral vaccination: s.c., restimulation with MHC class I-restricted β-Gal peptide (CD8 epitope) (FIG. 10). The method, then: Experimental protocol: Spleens from vaccinated mice were removed and pooled for analysis of cellular immune responses. The protocol for vaccination was identical to the protocol described in Example 2. Cells were grown in RPMI 1640 supplemented with 10% fetal calf serum, 100 U/ml of penicillin, 50 μg/ml of streptomycin, 5×10^−5 M 2-mercaptoethanol and 1 mM L-glutamine (GIBCO BRL, Karlsruhe, Germany) and maintained at 37° C. in a humidified 5% CO2 atmosphere. […]
For coating ELISPOT plates, said plates were incubated with 100 μl/well of purified capture antibody (10 μg/ml in coating buffer) at 4° C. overnight. After 6× washing steps, the plates were blocked with 200 μl/well of complete RPMI-1640 at room temperature for 1 hour. The activated cells were seeded at 100 μl per well and incubate at 37° C., in a 5% CO2 humidified incubator for 24 hours or 48h hours. After 5× washing steps with washing buffer and 1× step with distilled water, 100 μl/well of the biotinylated detection antibody with a concentration of 1 μg/ml in Assay Diluent was added and incubated at room temperature for 2 hrs. After further washing steps 100 μl/well of the AV-HRP at 1/1000 dilution in Assay Diluent was added and incubated at room temperature for 30 minutes. After further washing steps 100 μl/well of AEC Substrate Solution was added and developed at room temperature for 10-60 minutes until visible spots appeared. After washing steps with (3×) with 200 μl/well distilled water, the plates were air-dried and analyzed by counting the spots by an ELISPOT reader. Each concentration was tested in triplicates.

Assay [1] concerns re-stimulated spleen cells. Put plainly: Cytokines in supernatants of in vitro re-stimulated spleen cells by cytometric bead array. The settings on record: for IL-6 secretion of re-stimulated spleen cells: versus β-Gal without adjuvant (FIGS. 8 and 9); for IFNγ secretion of re-stimulated spleen cells: versus β-Gal without adjuvant, c-diGMP data from i.n. immunized mice (FIG. 7, FIG. 9). In kind it is in vivo, mice. The method, then: Experimental protocol: Spleens from mucosal (i.n.) or parenteral (s.c.) vaccinated mice were removed and pooled for analysis of cellular immune responses. The protocol for vaccination was identical to the protocol described in Example 2. Cells were grown in RPMI 1640 supplemented with 10% fetal calf serum, 100 U/ml of penicillin, 50 μg/ml of streptomycin, 5×10^−5 M 2-mercaptoethanol and 1 mM L-glutamine (GIBCO BRL, Karlsruhe, Germany) and maintained at 37° C. in a humidified 5% CO2 atmosphere. Spleen cell suspensions were adjusted to 5×10^6 cells/ml in complete medium, cells were seeded with 100 μl per well in a flat-bottomed 96-well microtiter plate (Nunc) and plates were incubated for 4 days in the presence of different concentrations of soluble β-gal.
To characterize the type of Th response stimulated following immunization, the content of IFNγ, IL-6, IL-10, IL-12 (for c-diAMP only), MCP-1, and TNFα was measured in supernatants from in vitro re-stimulated spleen cells (FIG. 7 and 8 for c-diGMP and FIG. 9 for c-diAMP) by the Cytometric Bead Array. Culture supernatants from proliferating cells were collected on days 2 and 4, and stored at −70° C. Determination of IFNγ, TNFα, IL-6, IL-10, IL-12, and MCP-1 was performed by cytometric bead array (CBA) analysis using the commercial kit from BectonDickinson, according to the manufacturer's instructions or with commercially available ELISA systems. For CBA analysis, a standard curve was generated for each cytokine by using the corresponding recombinant murine cytokines (Pharmingen). Probes were incubated at room temperature for additional 2h. The probes were analyzed subsequently by flow cytometry as described in the protocol of BD.

In assay [2] the test system is primary bone marrow-derived murine dendritic cells. As to the kind of experiment: In vitro stimulation of primary bone marrow-derived murine dendritic cells, flow cytometry of surface markers. In kind it is cell-based, BALB/c mice. Particulars: 10 ng/ml c-diGMP, flow cytometry after 12 h and 24 h, versus no stimulus (FIG. 1). The method, then:
Experimental protocol: primary bone marrow-derived dendritic cell cultures were obtained from BALB/c mice following in vitro maturation of precursors in the presence of recombinant GM-CSF (5×104 U/ml), according to established protocols, e.g. Link, C., etal, 2004, Eur. J. Immuol, 34(3):899-907. Mature dendritic cells were stimulated with 10 ng/ml of E. coli lypopolysaccharide (LPS) or 10 ng/ml c-diGMP. The stimulation of cells was analyzed by flow cytometry to assess the expression of surface markers which are relevant for their antigen presentation capacity after 12 h and 24 h, respectively.
In order to identify compounds which may have potential as adjuvants for in vivo applications in the field of vaccines, a first in vitro screening based on the use of primary cultures of bone marrow-derived dendritic cells was established. Dendritic cells were selected since they represent the most efficient antigen presenting cells and they play a key role in primary immune responses. In fact, they represent the only cell type able to activate resting T cells initiating primary immune responses in vivo. […] At different time intervals, samples were taken, stained with fluorescent-labeled antibodies specific for cellular markers critical for the antigen presenting capacities of dendritic cells, and analyzed by flow cytometry.
For orientation: Flow cytometry measures light scatter and fluorescence of single cells or particles in a stream.

Where [3] appears, read: i.n., average titer of 5 animals (FIG. 12A).
The mark [4] stands for this setting: s.c., average titer of 5 animals (FIG. 12B).

With `Nc1ncnc2c1ncn2[C@@H]1O[C@@H]2COP(=O)(O)O[C@H]3[C@@H](O)[C@H](n4cnc5c(N)ncnc54)O[C@@H]3COP(=O)(O)O[C@H]2[C@H]1O` [c-diAMP, cyclic bis(3′-5′)diadenylic acid], in the assay on BALB/c (H-2d) mice (setting [3]), the “β-gal specific IgG1 in sera, intranasal” value is “strongly increased” and the “β-gal specific IgG2a in sera, intranasal” value is listed as “strongly increased”. Also, in the assay with BALB/c (H-2d) mice (setting [4]), the “β-gal specific IgG1 in sera, subcutaneous” value is recorded as “strongly increased” and the “β-gal specific IgG2a in sera, subcutaneous” value was “strongly increased”. Further, in the assay on spleen cells, the “expression of various cytokines” value was “increased expression”, the “splenic IL-2 producing cells” value is listed as “strong expression”, the “splenic IL-4 producing cells” value is reported as “strong expression” and the “antigen-specific IFNγ secreting cells” value is on record as “increased in number”. Also, in the assay with spleen cells, the “antigen-specific IL-2 secreting cells” value is given as “increased in number”; the “antigen-specific IL-4 secreting cells” value is “increased in number”; the “number of splenic IFNγ producing cells, parenteral vaccination” value was “increment”. For the same compound, the “type of Th response induced” value in assay [1] (mice immunized with β-gal plus adjuvant) is “balanced Th1/Th2 response”. Besides, the “TNFα secretion of re-stimulated spleen cells” value in assay [1] (versus β-Gal without adjuvant (FIG. 9)) is “enhanced secretion”. Also, in assay [1], the “IL-6 secretion of re-stimulated spleen cells” value was “same results” and the “IFNγ secretion of re-stimulated spleen cells” value is “enhanced secretion”.

As to `Nc1nc2c(ncn2[C@@H]2O[C@@H]3COP(=O)(O)O[C@H]4[C@@H](O)[C@H](n5cnc6c(=O)[nH]c(N)nc65)O[C@@H]4COP(=O)(O)O[C@H]3[C@H]2O)c(=O)[nH]1` [c-diGMP, cyclic bis(3′-5′)diguanylic acid], in the assay on spleen cells, the “expression of various cytokines” value is “increased expression”, the “splenic IL-2 producing cells” value is listed as “strong expression”, the “splenic IL-4 producing cells” value is “strong expression” and the “antigen-specific IFNγ secreting cells” value is given as “increased in number”. Also, in the assay on spleen cells, the “antigen-specific IL-2 secreting cells” value is “increased in number”; the “antigen-specific IL-4 secreting cells” value is recorded as “increased in number”; the “number of splenic IFNγ producing cells, parenteral vaccination” value was “increment”. In addition, in assay [1], the “IL-6 secretion of re-stimulated spleen cells” value is given as “same results” and the “IFNγ secretion of re-stimulated spleen cells” value is given as “strong expression; also recorded: enhanced secretion”. Besides, in assay [1] (β-gal/c-diGMP versus β-gal alone (FIG. 8B)), the “Th1 like cytokines in antigen restimulated spleen cells” value is listed as “high expression”. The “expression of CD40 on dendritic cells” value in assay [2] is “up-regulated”.
